Where a SMILES comes first, the peptide text is derived from it. Bridges are numbered along the chain shown (N, C = ends). [ ]: non-standard residue; d: D form. The star is where a group is joined. X1 = NC[C@@H](CC(=O)*)c1cccc(Cl)c1; Dab = NCC[C@H](N)C(=O)O; Dap = NC[C@H](N)C(=O)O
What was measured:
[1] = Epithelial lining fluid (ELF) pharmacokinetics of SPR206 by bronchoscopy with BAL, urea dilution method; assay type: in vivo, human
Method: (§1) This was a Phase 1, single-center, multiple-dose, open-label PK study in healthy adult male and female subjects. Subjects received three 100 mg doses of SPR206 administered q8h as a 1-h IV infusion. Three consecutive doses were sufficient to achieve steady-state based on a previous Phase 1 study in healthy subjects ([36]). A screening evaluation to determine eligibility for enrollment into the study was performed within 28 days of initial dosing. Subjects who met inclusion and exclusion criteria returned to the study unit 1 day before dosing (Day -1). Subjects who met inclusion and exclusion criteria were confined to the study site from Day -1 (1 day prior to start of dosing) and remained in the study site through completion of all scheduled procedures including collection of the last PK sample and bronchoscopy procedures along with safety evaluations (Day 2). Each subject underwent 1 bronchoscopy with BAL at 2, 3, 4, 6, or 8 h after the start of the third IV infusion. Subjects were required to return for a follow-up visit on Day 7 (+2 days) after discharge from the study site. The maximum duration of participation for each subject was up to 39 days (up to 28 days for Screening, 2 days of confinement, and up to 9 days for follow-up).
(§2) Subjects were assigned to 1 of 5 bronchoscopy sampling times at 2, 3, 4, 6, or 8 (± 10 min) after the third IV infusion of SPR206. Each subject underwent 1 standardized bronchoscopy and BAL on Day 2 at the assigned time. A blood sample to determine plasma concentrations of SPR206 and urea was obtained during the bronchoscopy procedure at each BAL sampling time (approximating the time of collection of a second aspirate of BAL). Detail descriptions of the outpatient bronchoscopy, BAL procedures, and the handling, processing, and storage of samples have been previously described ([58][–][60]).
(§3) The concentrations of SPR206 in BAL and in cell pellets were determined by Keystone Bioanalytical, Inc. using a validated LC-MS/MS method. ELF concentrations were calculated by the urea dilution method ([61], [62]). AM concentrations were determined from cell pellet drug concentrations, cell count in BAL fluid, and macrophage cell volume ([62]). The calibration curves for SPR206 were linear over a range from 2 to 1,000 ng/mL. The inter-assay precision (%CV) and accuracy (%RE) for SPR206 were 2.81% to 15.84% and -4.02% to 1.51%, respectively. The intra-assay precision (%CV) and accuracy (%RE) for SPR206 were 1.43% to 18.59% and -17.44% to 6.28%, respectively.
The concentration of urea in plasma and BAL fluid supernatants was determined using a validated LC/MS/MS method from Keystone Bioanalytical, Inc. Thirty human plasma and 30 BAL fluid samples were assayed for urea concentrations. A total of 10 samples for both plasma and BAL fluid (33.3%) were selected for testing, and the calculated assay variability was within 20%. The calibration curve for the urea assay in plasma was linear over the range from 100 to 3,000 μg/mL. The inter-assay precision (%CV) and accuracy (%RE) for SPR206 were 1.98% to 3.37% and -8.17% to 4.13%, respectively. The intra-assay precision (%CV) and accuracy (%RE) for SPR206 were 0.56% to 5.60% and -10.21% to 8.54%, respectively. The calibration range of the urea assay for BAL fluid was linear (r^2 > 0.998) over the range of 0.2 to 10 μg/mL. The inter-assay precision (%CV) and accuracy (%RE) for SPR206 were 6.40% to 9.77% and -3.22% to 1.47%, respectively. The intra-assay precision (%CV) and accuracy (%RE) for SPR206 were 0.96% to 12.08% and -11.30% to 9.15%, respectively.
Actual BAL samples were collected outside the protocol-specified sampling time windows. Thus, an updated method was utilized where the PK parameters for ELF or AM were calculated from composite concentration profiles of ELF or AM, respectively, based on the 27 subjects in the BAL PK population. […]

[2] = Alveolar macrophage (AM) pharmacokinetics of SPR206 from BAL cell pellet; assay type: in vivo, human
Method: as §1, §2, §3
Actual BAL samples were collected outside the protocol-specified sampling time windows. Thus, an updated method was utilized where the PK parameters for ELF or AM were calculated from composite concentration profiles of ELF or AM, respectively, based on the 27 subjects in the BAL PK population. Some blood samples were collected outside of the planned sampling windows, and therefore, individual plasma AUC0-8 was calculated first and the mean population plasma AUC0-8 was derived from all individual AUC0-8 values.
Concentrations of SPR206 were summarized separately for plasma, ELF, and AM by nominal time point using descriptive statistics. The mean concentrations of SPR206 in BAL fluid obtained at the different BAL fluid sampling times (e.g., 2, 3, 4, 6, and 8 h) were used to estimate the AUC0-8 for SPR206 in plasma, ELF, and AM. The concentration at the final sampling time (8 h) also served as the time zero value for determining the AUC0-8 value of each matrix using Phoenix WinNonlin software (version 8.3, Certara Inc.). The ratios of the AUC0-8 of ELF or AM to the AUC0-8 of plasma (total and unbound) were calculated. Plasma protein binding analyses were not conducted as part of this study. The value used for the unbound fraction of SPR206 in plasma was 0.914 (Spero Therapeutics, Inc., data on file). The measured concentrations in ELF and AM represented unbound concentrations, since only unbound plasma fractions are considered to penetrate the lung compartments. […]

[3] = BAL sampling time 2 hours post-dose
[4] = BAL sampling time 2 hours post-dose, unbound fraction 0.914
[5] = BAL sampling time 3 hours post-dose
[6] = BAL sampling time 3 hours post-dose, unbound fraction 0.914
[7] = BAL sampling time 4 hours post-dose
[8] = BAL sampling time 4 hours post-dose, unbound fraction 0.914
[9] = BAL sampling time 6 hours post-dose
[10] = BAL sampling time 6 hours post-dose, unbound fraction 0.914
[11] = BAL sampling time 8 hours post-dose
[12] = BAL sampling time 8 hours post-dose, unbound fraction 0.914
[13] = both sexes, human, in vivo, iv, 100 mg

CC(C)C[C@@H]1NC(=O)[C@@H](Cc2ccccc2)NC(=O)[C@H](CCN)NC(=O)[C@@H](NC(=O)[C@H](CN)NC(=O)[C@@H](NC(=O)C[C@H](CN)c2cccc(Cl)c2)[C@@H](C)O)CCNC(=O)[C@H]([C@@H](C)O)NC(=O)[C@H](CCN)NC(=O)[C@H](CCN)NC1=O [SPR206] (X1-T[Dap][Dab][Dab][dF]L[Dab][Dab]T; lactam 3-C (inferred))
Ratio ELF to total plasma concentration, arithmetic mean ± SD [1, 3]: 0.183 ± 0.032
Ratio ELF to unbound plasma concentration, arithmetic mean ± SD [1, 4]: 0.200 ± 0.035
Ratio ELF to total plasma concentration, arithmetic mean ± SD [1, 5]: 0.199 ± 0.066
Ratio ELF to unbound plasma concentration, arithmetic mean ± SD [1, 6]: 0.218 ± 0.072
Ratio ELF to total plasma concentration, arithmetic mean ± SD [1, 7]: 0.190 ± 0.067
Ratio ELF to unbound plasma concentration, arithmetic mean ± SD [1, 8]: 0.208 ± 0.074
Ratio ELF to total plasma concentration, arithmetic mean ± SD [1, 9]: 0.428 ± 0.176
Ratio ELF to unbound plasma concentration, arithmetic mean ± SD [1, 10]: 0.469 ± 0.192
Ratio ELF to total plasma concentration, arithmetic mean ± SD [1, 11]: 0.347 ± 0.138
Ratio ELF to unbound plasma concentration, arithmetic mean ± SD [1, 12]: 0.380 ± 0.151
Ratio of AUC0-8 of ELF to AUC0-8 of total plasma ([1]; after third 100 mg IV dose, plasma n = 34, ELF n = 27): 0.242
Ratio of AUC0-8 of ELF to AUC0-8 of unbound plasma ([1]; after third 100 mg IV dose, plasma n = 34, ELF n = 27, unbound fraction 0.914): 0.264
AUC(0-t) [1, 13]: 4.86 µg·h/mL
Cmax [1, 13]: 0.736 µg/mL
Tmax [1, 13]: 2.2 h
Ratio AM to total plasma concentration, arithmetic mean ± SD [2, 3]: 0.206 ± 0.114
Ratio AM to unbound plasma concentration, arithmetic mean ± SD [2, 4]: 0.226 ± 0.124
Ratio AM to total plasma concentration, arithmetic mean ± SD [2, 5]: 0.184 ± 0.065
Ratio AM to unbound plasma concentration, arithmetic mean ± SD [2, 6]: 0.201 ± 0.071
Ratio AM to total plasma concentration, arithmetic mean ± SD [2, 7]: 0.223 ± 0.089
Ratio AM to unbound plasma concentration, arithmetic mean ± SD [2, 8]: 0.244 ± 0.097
Ratio AM to total plasma concentration, arithmetic mean ± SD [2, 9]: 0.519 ± 0.223
Ratio AM to unbound plasma concentration, arithmetic mean ± SD [2, 10]: 0.568 ± 0.244
Ratio AM to total plasma concentration, arithmetic mean ± SD [2, 11]: 0.503 ± 0.192
Ratio AM to unbound plasma concentration, arithmetic mean ± SD [2, 12]: 0.550 ± 0.210
Ratio of AUC0-8 of AM to AUC0-8 of total plasma ([2]; after third 100 mg IV dose, plasma n = 34, AM n = 27): 0.300
Ratio of AUC0-8 of AM to AUC0-8 of unbound plasma ([2]; after third 100 mg IV dose, plasma n = 34, AM n = 27, unbound fraction 0.914): 0.328
AUC(0-t) [2, 13]: 6.03 µg·h/mL
Cmax [2, 13]: 0.861 µg/mL
Tmax [2, 13]: 6.4 h

Reference: publication PMC10353446, “Pharmacokinetics of SPR206 in Plasma, Pulmonary Epithelial Lining Fluid, and Alveolar Macrophages following Intravenous Administration to Healthy Adult Subjects” (Antimicrobial Agents and Chemotherapy, 2023)
